According to paper PMC5603512, “Discovery, Semisynthesis, Antiparasitic and Cytotoxic Evaluation of 14-Membered Resorcylic Acid Lactones and Their Derivatives” (Scientific Reports, 2017):

Legend:
[1] = Cytotoxicity MTT assay, K562; details: human, K562 erythroleukemic cells
Experimental: (§1) All of the compounds were also evaluated for their cytotoxic properties against six human cancer cell lines (lung carcinoma epithelian (A549), colon carcinoma (HCT-116), pancreatic carcinoma (BXPC-3), breast cancer (MCF-7), cervical epithelium (HeLa), and erythroleukemic (K562)) and a human umbilical vein endothelial cell (HUVEC) line (Table 2).
(§2) The cytotoxicity against HCT-116, BXPC-3, HeLa, MCF-7, A-549, and HUVEC cell lines was evaluated using the SRB method. The cytotoxicity against K562 and Vero cell lines was evaluated using the MTT method. Adriamycin was used as a positive control. All cells were cultivated in T-75 flasks containing 10% Fetal Bovine Serum (FBS), Dulbeco’s Modified Eagle Medium (DMEM) with 2 mM L-glutamine, and 1% penicillin-streptomycin at 37 °C in a humidified atmosphere with 5% CO2. For SRB assay, cells in their log phase of growth were seeded into 96 well micro plates (4 × 10^4 cells per well) and followed by treating with test samples at 10 μM or DMSO. After incubation at 37 °C for 72 h, the cells were fixed with the cold 20% (w/v) TCA for 2 h and stained with Sulforhodamine B (SRB) dye for 0.5 h. The protein-bound dye is dissolved in Tris base solution for OD determination at 540 nm on an ELISA Plate Reader. For MTT assay, cells (5 × 10^3 cells per well) were plated in 96 well micro plates. After cell attachment overnight, new medium containing test compounds or DMSO was added. The plate was incubated for 48 h at 37 °C and incubated with 3-(4,5-dimethylthiazol-2-yl)-2,5-diphenyltetrazolium bromide (MTT) for additional 2–4 hours. The assay plate was then read at 490 nm on an ELISA Plate Reader. The data were obtained from experiments carried out in triplicate.

Leishmania donovani = test: Antileishmanial assay (PicoGreen); format: cell-based; details: in vitro, read-out: Leishmania donovani IC50
Experimental: The anti-leishmania activity was evaluated following the protocol described by Calderon et al.[39], using the fluorescent DNA intercalator PicoGreen (Invitrogen, USA). The species responsible for visceral leishmaniasis, L. donovani, was used for the assays.

Trypanosoma cruzi = test: Antitrypanosomal assay (beta-galactosidase reporter, intracellular amastigotes in Vero cells); format: cell-based; details: Tulahuen clone C4, intracellular amastigotes in Vero cells, 120 h; also: key: I: Inactive
Experimental: Briefly, the expression of the reporter gene for beta-galactosidase (β-Gal) in the Tulahuen clone C4 of T. cruzi is assessed by colorimetry at 570 nm, which correlates with the parasite growth. Assays were performed on the intracellular amastigote form of the parasite infecting African green monkey kidney (Vero) cells, incubated for 120 h at 37 °C with 5% CO2.

[2] = Cytotoxicity SRB assay, BXPC-3; details: human, BXPC-3 pancreatic carcinoma cells
Experimental: as §1, §2

[3] = Chemical stability / interconversion in solvents; format: physicochemical; details: MeOH, EtOH, MeOH-d4 (except H2O), stationary state, within a week
Experimental: Compounds 1–6 and 11–27 were designed and synthesized through one or two-step semisynthetic reaction with high yields ranging from 65–95% from 7 and 8 (Fig. 1). The structures of new derivatives 12, 14–19, 21–22, 24, and 27 were identified by extensive spectroscopic methods including HRESIMS, ^1H NMR, and ^13C NMR. Compound 1 was prepared in yield of 95% through one-step acetonide reaction from 8. Other acetonide derivatives (11, 17, 18, 20, 23, 25, and 26) were also prepared with the same yields. Chlorination of compound 8 with sulfuryl chloride[33] followed by selective reduction with 10% Pd-C under H2 atmosphere led to the natural compound 2 (68%, yield). Acylation reaction was carried out by reaction of anhydride with the corresponding materials (1–3, and 6–8) in high yields (85–95%). In order to prepare 6, oxidation of the allyl alcohol 8 was examined under various oxidation conditions (PCC, PDC, MnO2, DMP, and IBX). However, only DMP and IBX enabled the selective oxidation of the allyl alcohol to give 6 in 65% and 35% yields, respectively (Fig. 3). […] Compounds 3–6 are diastereomers differing from each other by the absolute configurations of the 4′, 5′-diol chiral centers. The proportions of compounds 3–6 were in dynamic equilibrium, and the final ratios of 3–6 were approximately 8: 2: 5: 6 (Fig. 4). […]

[4] = Cytotoxicity SRB assay, MCF-7; details: human, MCF-7 breast cancer cells
Experimental: as §1, §2

[5] = Cytotoxicity against the panel of six human cancer cell lines and HUVEC
Experimental: as §1, §2

[6] = Cytotoxicity SRB assay, A-549; details: human
Experimental: as §1, §2

[7] = Cytotoxicity SRB assay, HeLa; details: human
Experimental: as §1, §2

[8] = Cytotoxicity SRB assay, HCT-116; details: human
Experimental: as §1, §2

Plasmodium falciparum = test: Antiplasmodial assay (PicoGreen growth inhibition in infected human erythrocytes); format: cell-based; details: Erythrocyte, in vitro, W2 and 3D7 strains cultured, strain of the values not stated, read-out: Plasmodium falciparum IC50
Experimental: Activity against the causative agent of malaria was performed by culturing human erythrocytes and infecting them with P. falciparum, as described by Trager and Jensen[36]. Briefly, the W2 (Chloroquine resistant) and 3D7 (Chloroquine sensitive) strains of P. falciparum were cultured in RPMI 1640 medium (Sigma-Aldrich, USA) supplemented with 10% human serum (from O+ blood) at a hematocrit of 2% erythrocytes (O+) at 37 °C in a gas mixture of 5% CO2, 5% O2, and 90% N2. Parasites were synchronized by a temperature cycling technique as described by Almanza et al.[37]

P. falciparum lines 3D7 = tested on: P. falciparum lines 3D7; set-up: method as in PMID 20429578, PMID 20429578; details: line 3D7; read-out: IC50 against P. falciparum line 3D7; cited from earlier work
P. falciparum lines Dd2 = details: line Dd2; read-out: IC50 against P. falciparum line Dd2; cited from earlier work
[9] = Cytotoxicity SRB assay, HUVEC; details: human
Experimental: as §1, §2

[10] = Toxicity against Vero cells (MTT); format: cell-based, African green monkey; details: African green monkey, Vero cells (mammalian kidney cell line); MTT, 48 h
Experimental: (§3) It should be emphasized that toxicity is a major concern of drug discovery and development. The above active compounds were evaluated for in vitro toxicity against a mammalian kidney cell line (Vero). The selectivity index (SI) was used as the evaluation parameter of drug potential of the test samples by comparing the toxicity on the Vero cell line (CC50) and the selective inhibitory effect on P. falciparum, L. donovani or T. cruzi (IC50) calculated here as CC50/IC50.
(§4) Adriamycin was used as a positive control.

Vero cells = test: Toxicity against Vero cells (MTT); format: cell-based, African green monkey; details: in vitro toxicity against mammalian kidney cell line (Vero)
Experimental: as §3, §4

[11] = HUVEC (umbilical vein endothelial cells)

Row | Compound | IC50 at 48 h [1] [µM] | IC50 (Leishmania donovani) [µM] | Trypanosoma cruzi IC50 (Trypanosoma cruzi) | IC50 at 72 h [2] [µM] | IC50 at 72 h [4] [µM] | IC50 [5] [µM] | IC50 at 72 h ([6]; A-549 lung carcinoma cells) [µM] | IC50 at 72 h ([7]; HeLa cervical epithelium cells) [µM] | IC50 at 72 h ([8]; HCT-116 colon carcinoma cells) [µM] | IC50 (Plasmodium falciparum) [µM] | IC50 at 72 h [9, 11] [µM] | CC50 at 48 h [10] [µM] | other results
1 | COc1cc(O)c2c(c1)/C=C/C[C@@H](O)[C@H](O)C(=O)/C=C/C[C@H](C)OC2=O [Compound 3] | > 10 | 9.11 | I | > 10 | > 10 | < 10 | > 10 | 7.18 | > 10 | > 30.7 | – | – | Stability in protic solvents [3]: quite stable
2 | COc1cc(O)c2c(c1)/C=C/C[C@H](O)[C@H](O)[C@@H](O)CCC[C@H](C)OC2=O [Paecilomycin E, paecilomycin E] | – | – | – | – | – | – | – | – | – | – | – | – | IC50 (P. falciparum lines 3D7): 0.02 µM; IC50 (P. falciparum lines Dd2): 8.8 µM
3 | COc1cc(O)c2c(c1)/C=C/C[C@H](O)[C@H](O)C(=O)/C=C\C[C@H](C)OC2=O [Compound 7] | > 10 | 2.21 | – | 5.07 | > 10 | < 10 | > 10 | > 10 | 1.09 | 11 | > 10 | < 1 | –
4 | COc1cc2c(c(OC(C)=O)c1)C(=O)O[C@@H](C)C/C=C/[C@@H]1OC(C)(C)O[C@H]1[C@@H](OC(C)=O)C/C=C/2 [Compound 11] | > 10 | 9.22 | – | > 10 | > 10 | – | > 10 | > 10 | > 10 | 1.84 | > 10 | 339 | IC50 (Trypanosoma cruzi; Trypanosoma cruzi, read-out: Trypanosoma cruzi IC50): 11.9 µM; Toxicity (in words) (Vero cells): non-toxic
5 | COc1cc2c(c(OC(=O)c3ccco3)c1)C(=O)O[C@@H](C)C/C=C/[C@H](OC(=O)c1ccco1)[C@@H](OC(=O)c1ccco1)[C@@H](OC(=O)c1ccco1)C/C=C/2 [Compound 15] | – | > 15.7 | I | – | – | – | – | – | – | 22.2 | – | 1570 | Toxicity (in words) (Vero cells): non-toxic
6 | COc1cc(O)c2c(c1)/C=C/C[C@H]1OC(C)(C)O[C@@H]1C(=O)/C=C/C[C@H](C)OC2=O [Compound 23] | – | > 15.7 | I | – | – | < 10 | – | – | – | > 30.7 | – | – | IC50 at 72 h [9]: 7.51 µM; IC50 at 72 h [6]: 9.75 µM; IC50 at 72 h [7]: 6.59 µM; IC50 at 72 h [8]: 3.51 µM
7 | COc1cc(O)c2c(c1)/C=C/C[C@H](OC(C)=O)[C@H](OC(C)=O)C(=O)/C=C\C[C@H](C)OC2=O [Compound 27] | – | 3.14 | – | – | – | < 10 | 7.3 | 3.85 | 2.83 | > 30.7 | 5.9 | < 1 | –
